Here are results for 21 molecules from BindingDB's records for doi:10.1021/jm00120a002 (Merck Sharp & Dohme Research Laboratories, 1989).

For orientation: IC50 means the midpoint of a concentration-inhibition curve.

The nature of one assay: Half-maximal inhibition of [125I]CCK-33 binding to cholecystokinin receptor.
Molecule `O=C1Nc2ccc(Cl)cc2C(c2ccccc2)=N[C@@H]1Cc1c[nH]c2ccccc12` gave an IC50 of 3.4 µM.

A further assay is described as follows: Half-maximal inhibition of [125I]gastrin binding to guinea pig gastric glands.
The molecule `O=C(NC1N=C(c2ccccc2)c2ccccc2NC1=O)c1ccc(F)cc1` (stereo unspecified) gave an IC50 of 9.4 µM. On the same count and under the same terms, for `Cc1ccc(C(=O)NC2N=C(c3ccccc3F)c3ccccc3NC2=O)cc1` (stereo unspecified) the value was 5 µM; for `O=C(NC1N=C(c2ccccc2F)c2ccccc2N(C(=O)c2ccc(Cl)cc2)C1=O)c1ccc(Cl)cc1` (stereo unspecified), 0.55 µM. `CN1C(=O)C(NC(=O)c2cccc(I)c2)N=C(c2ccccc2F)c2ccccc21` (stereo unspecified) had an IC50 of 0.39 µM.

Consider `O=C(NC1N=C(c2ccccc2F)c2ccccc2NC1=O)c1ncc2ccccc2n1` (stereo unspecified), for which the IC50 is > 10 µM. On the same count and under the same terms, for `O=C(NC1N=C(c2ccccc2)c2ccccc2NC1=O)c1ccc(-c2ccccc2)cc1` (stereo unspecified) the value was > 100 µM; for `CN1C(=O)[C@@H](NC(=O)C(C)(C)C)N=C(c2ccccc2)c2ccccc21`, 13 µM. Take `COc1ccc(C(=O)NC2N=C(c3ccccc3F)c3ccccc3NC2=O)cc1` (stereo unspecified): the IC50 was 5.4 µM.

For the molecule `CN1C(=O)[C@H](NC(=O)c2ccccc2Cl)N=C(c2ccccc2F)c2ccccc21`, the IC50 was 3.7 µM. On the same count and under the same terms, as for `O=C(NC1N=C(c2ccccc2F)c2ccccc2NC1=O)c1cc2cc(Br)ccc2[nH]1` (stereo unspecified), the figure is > 10 µM. Still for that read-out and setting: for `CCCCCc1ccc(C(=O)N[C@H]2N=C(c3ccccc3F)c3ccccc3N(C)C2=O)cc1` the value was 60 µM. Same read-out and setting: for `O=C(NC1N=C(c2ccccc2)c2ccccc2NC1=O)c1ccc(Cl)cc1` (stereo unspecified) the value was 8.2 µM; for `CN1C(=O)CN=C(c2ccccc2)c2ccccc21`, 94 µM; for `CN1C(=O)[C@@H](NC(=O)c2ccc(Br)cc2)N=C(c2ccccc2F)c2ccccc21`, 0.68 µM.

As to `CN1C(=O)C(NC(=O)[C@H](Cc2ccccc2)NC(=O)OC(C)(C)C)N=C(c2ccccc2F)c2ccccc21` (stereo partly specified), the IC50 was determined as 1.2 µM. The same measure, in the same setting: for `CN1C(=O)C(NC(=O)c2ccc(Cl)cc2N)N=C(c2ccccc2)c2ccccc21` (stereo unspecified) [2-Amino-4-chloro-N-(1-methyl-2-oxo-5-phenyl-2,3-dihydro-1H-benzo[e][1,4]diazepin-3-yl)-benzamide.H2O] the value was 1.9 µM; for `CC(C)(C)c1ccc(C(=O)NC2N=C(c3ccccc3)c3ccccc3NC2=O)cc1` (stereo unspecified) [4-tert-Butyl-N-(2-oxo-5-phenyl-2,3-dihydro-1H-benzo[e][1,4]diazepin-3-yl)-benzamide: 0.12CHCl3], 40 µM; for `CN1C(=O)C(NC(=O)c2cc3ccccc3n2C)N=C(c2ccccc2F)c2ccccc21` (stereo unspecified), 1.6 µM.

Regarding `CN1C(=O)[C@H](NC(=O)C2CCCCC2)N=C(c2ccccc2)c2ccccc21`, the 50% inhibitory concentration (IC50) worked out at 1.5 µM. On the same count and under the same terms, for `CN1C(=O)[C@H](NC(=O)c2ccc(Cl)cc2)N=C(c2ccccc2F)c2ccccc21` the value was 5.2 µM.
